The values that follow come from patent US20060177474A1, “Agricultural and horticultural poison bait preparation” (priority 2005, published 2006).

The structures appear in SMILES notation.

With `Cc1cc(C(F)(C(F)(F)F)C(F)(F)F)ccc1NC(=O)c1cccc(I)c1C(=O)NC(C)C[S+](C)[O-]` (stereo not shown) [compound 28, 3-iodo-N^1-{2-methyl-4-[1,2,2,2-tetrafluoro-1-(trifluoromethyl)ethyl]phenyl}-N^2-(1-methyl-2-methylsulfinylethyl)phthalamide], the melting point is 134 °C. Under `Cc1cc(C(F)(C(F)(F)F)C(F)(F)F)ccc1NC(=O)c1cccc(Br)c1C(=O)NC(C)CS(C)(=O)=O` (stereo not shown) stands 153 to 155 °C.

In turn, `Cc1cc(C(F)(C(F)(F)F)C(F)(F)F)ccc1N(C(=O)c1c(I)cccc1C(N)=O)C(C)CS(C)(=O)=O` (stereo not shown) [compound 27, 3-iodo-N′-{2-methyl-4-[1,2,2,2-tetrafluoro-1-(trifluoromethyl)ethyl]phenyl}-N^2-(1-methyl-2-methylsulfonylethyl)phthalamide] showed a melting point of 82 °C. Under `Cc1cc(C(F)(C(F)(F)F)C(F)(F)F)ccc1N(C(=O)c1cccc(Cl)c1C(N)=O)C(C)CS(C)(=O)=O` (stereo not shown) [compound 37, 3-chloro-N^1-{2-methyl-4-[1,2,2,2-tetrafluoro-1-(trifluoromethyl)ethyl]phenyl}-N^1-(1-methyl-2-methylsulfonylethyl)phthalamide] stands 155 to 156 °C.

The term melting point denotes the temperature of the solid-liquid transition.
